In brackets after ≈: the same amount, converted by molar mass. Like-named read-outs stand apart in the source and are kept apart here.
What was measured:
[1] = test system: Fusarium graminearum Fg15 strain; type: cell-based; conditions: 25° C., 1 week
[2] = test system: Fusarium graminearum Fg15 strain; assay: microbe, parasite or virus in culture; type: cell-based; conditions: FG15STRAIN, read-out: MIC value (minimum inhibition concentration)
[3] = test system: Fusarium graminearum H-3 strain; type: in vivo, wheat
[4] = test system: Fusarium graminearum H-3 strain; type: in vivo, barley; conditions: 18% wettable powder, 2000-fold dilution, 1500 L/ha, once in browning stage

Which results are given for CC1(C)CCC(Cc2ccc(Cl)cc2)C1(O)Cn1cncn1 (stereo not shown) [metconazole]?
toxin (DON) amount per cell weight versus medium containing no metconazole ([1]; PDA medium containing metconazole at 0.1 ppm): significantly smaller; toxin (DON) amount per cell weight versus medium containing no metconazole ([1]; PDA medium containing metconazole at 0.2 ppm): significantly smaller; MIC [2]: 1.56 µg/mL (≈ 4.88 µM); mycotoxin (DON) in wheat grains versus grain cropped without application ([3]; 18% wettable powder, 2000-fold dilution, 1500 L/ha, once in yellowing stage or each once in flowering and yellowing stage, 2 weeks after cropping, FIG. 2): significantly smaller amount of the toxin; accumulation of the toxin in wheat grains after cropping ([3]; application in the pre-cropping yellowing stage): inhibited; DON accumulation level in barley grain at the time of cropping [4]: 704 ppb; DON accumulation level in barley grain after storage for a half year ([4]; room temperature storage for a half year after cropping): 407 ppb

— patent publication US20140039018A1 (priority 2011, published 2014)
